The first series concerns p53 tumor suppressor gene nonsense mutation in HCI-H1926 cells. Kind of series: anti-p53 antibody western blot, suppression of p53 nonsense mutation in HCI-H1926 cells. As to conditions: HCI-H1926, mutation TGA-213. In kind it is cell-based. The method, then:
[Worded in the source for another cell line; this cell line is reported under the same test.] (§1) CAOV-3 cells were plated in 3.5 mm wells (20,000 cells per well). After 18 hours the media was changed and clitocine, a representative compound of the invention, was added to each well resulting in the following final concentrations: 0 nM, 32 nM, 80 nM, 200 nM and 500 nM. After incubating for 48 hours, cells were scraped into media, centrifuged and resuspended in 200 μL of sodium dodecyl sulfate (SDS) sample buffer. 15 μL of each sample was separated by sodium dodecyl sulfate polyacrylamide gel electrophoresis (SDS-PAGE), transferred to nitrocellulose and a western blot analysis was performed using an antibody specific for p53 (DO-1). The membrane was stripped and re-probed with anti-actin as a loading control.
Regarding `CN[C@@H]1[C@@H](O)[C@@H](O[C@@H]2[C@@H](O)[C@H](O[C@H]3O[C@H]([C@@H](C)O)[C@@H](O)[C@H](O)[C@H]3N)[C@@H](N)C[C@H]2N)OC[C@]1(C)O` [Compound G418], the “full length p53 by anti-p53 antibody western blot” value (“full length p53” for short) is recorded as “+”.

A further series has as its system p53 tumor suppressor gene nonsense mutation in NCI-H520 cells. The experiment in a line: anti-p53 antibody western blot, suppression of p53 nonsense mutation in NCI-H520 cells. Type of series: cell-based. Particulars: NCI-H520, mutation TGA-146. The method, then:
[Worded in the source for another cell line; this cell line is reported under the same test.] as §1
(A western blot detects proteins with antibodies after separation by electrophoresis.)
Turning to `CN[C@@H]1[C@@H](O)[C@@H](O[C@@H]2[C@@H](O)[C@H](O[C@H]3O[C@H]([C@@H](C)O)[C@@H](O)[C@H](O)[C@H]3N)[C@@H](N)C[C@H]2N)OC[C@]1(C)O` [Compound G418], the “full length p53” value is “+”.

The next series has as its system luciferase reporter construct containing a UGA premature termination codon stably transfected in 293T Human Embryonic Kidney cells. The experiment in a line: cell-based luciferase reporter assay (nonsense suppression). Also on record: key: Compounds which were found to have either or both very high potency and very high efficacy of protein synthesis are classified as “***”; Compounds which were found to have significant potency and/or efficacy of protein synthesis were classified as “**”; compounds which were found to have potency and/or efficacy of protein synthesis were classified as “*”. As to conditions: UGA premature termination codon luciferase reporter in 293T cells; gentamicin internal standard; qualitative potency/efficacy of protein synthesis. The procedure: Activity measurements in Table 1 were performed in a cell-based luciferase reporter assay (as described in Section 4.2) comprising a luciferase reporter construct containing a UGA premature termination codon that was stably transfected in 293T Human Embryonic Kidney cells. Gentamicin, a small molecule known to allow readthrough of premature termination codons, was used as an internal standard. Activity measurements are based on the qualitative ratio between the minimum concentration of compound required to produce a given protein in a cell versus the amount of protein produced by the cell at that concentration.
The test compounds identified in the nonsense suppression assay (for convenience referred to herein as a compound of the invention) can be tested for biological activity using host cells containing or engineered to contain the target RNA element coupled to a functional readout system. For example, the lead compound can be tested in a host cell engineered to contain the RNA with the premature translation termination codon controlling the expression of a reporter gene. In this example, the lead compounds are assayed in the presence or absence of the RNA with the premature translation termination codon. Compounds that modulate premature translation termination and/or nonsense-mediated mRNA decay in vivo will result in increased expression of the full-length gene, i.e., past the premature termination codon. Alternatively, a phenotypic or physiological readout can be used to assess activity of the target RNA with the premature translation termination codon in the presence and absence of the lead compound. Both the in vitro and in vivo nonsense suppression assays used herein and as described in International Patent Publication WO 01/44516, which is incorporated by reference herein in its entirety, can be used to identify lead compounds and can also be used to determine an EC50 for the lead compounds.
A stable cell line harboring the UGA nonsense-containing luciferase gene is treated with a test compound. Cells are grown in standard medium supplemented with 1% penicillin-streptomycin (P/S) and 10% fetal bovine serum (FBS) to 70% confluency and split 1:1 the day before treatment. The next day, cells are trypsinized and 40,000 cells are added to each well of a 96-well tissue culture dish. Serial dilutions of each compound are prepared to generate a six-point dose response curve spanning 2 logs (30 μM to 0.3 μM). The final concentration of the DMSO solvent remains constant at 1% in each well. Cells treated with 1% DMSO serve as the background standard, and cells treated with gentamicin serve as a positive control.
As for `Nc1ncnc(NC2O[C@H](CO)[C@@H](O)[C@H]2O)c1[N+](=O)[O-]` (stereo in doubt) [Compound 22, 6-amino-5-nitro-4-(α-D-ribofuranosylamino)-pyrimidine], the Activity result is on record as “***”. Still for that read-out and setting: as for `Nc1ncnc(N[C@@H]2O[C@H](COC(=O)c3ccccc3)C(OC(=O)c3ccccc3)C2OC(=O)c2ccccc2)c1[N+](=O)[O-]` (stereo in doubt) [Compound 24, 6-Amino-5-nitro-4-[(2,3,5-tri-O-benzoyl-β-D-ribofuranosyl)amino]pyrimidine], the entry is “**”.

With `CNc1ncnc(N[C@@H]2O[C@H](CO)[C@@H](O)[C@H]2O)c1[N+](=O)[O-]` [Compound 2, 6-(N-methylamino)-5-nitro-4-(β-D-ribo-furanosylamino)pyrimidine], the Activity entry is “**”. Still for that read-out and setting: then `Nc1ncnc(N[C@@H]2O[C@H](CO)[C@@H](O)[C@H]2O)c1N` [Compound 3, 5,6-Diamino-4-(β-D-ribofuranosyl-amino)pyrimidine], with “*”. The same measure, in the same setting: as for `O=[N+]([O-])c1cccnc1N[C@@H]1O[C@H](CO)[C@@H](O)[C@H]1O` [Compound 4, 3-Nitro-2-(β-D-ribofuranosyl-amino)pyridine], the entry is “***”; as for `O=[N+]([O-])c1ccc(N[C@@H]2O[C@H](CO)[C@@H](O)[C@H]2O)nc1` [Compound 5, 5-Nitro-2-(β-D-ribofuranosyl-amino)pyridine], “*”. Still for that read-out and setting: then `Nc1ncnc(N[C@@H]2C[C@H](CO)[C@@H](O)[C@H]2O)c1[N+](=O)[O-]` [Compound 6, (1R,2S,3R,5R)-3-(6-Amino-5-nitro-pyrimidin-4-ylamino)-5-hydroxymethyl-cyclopentane-1,2-diol], with 0; and `Nc1ncnc(N[C@H]2C[C@@H](CO)[C@H](O)[C@@H]2O)c1[N+](=O)[O-]` [Compound 7, (1S,2R,3S,5S)-3-(6-Amino-5-nitro-pyrimidin-4-ylamino)-5-hydroxymethyl-cyclopentane-1,2-diol], with 0; and `COc1ccc([N+](=O)[O-])c(N[C@@H]2O[C@H](CO)[C@@H](O)[C@H]2O)n1` [Compound 8, 6-methoxy-3-nitro-2-(β-D-ribofuranosyl-amino)pyridine], with 0. `CN(C)c1ncnc(N[C@@H]2O[C@H](CO)[C@@H](O)[C@H]2O)c1[N+](=O)[O-]` [Compound 9, 6-(dimethylamino)-5-nitro-4-(β-D-ribo-furanosylamino)pyrimidine] came in with an Activity of 0. As to `CSc1ncnc(N[C@@H]2O[C@H](CO)[C@@H](O)[C@H]2O)c1[N+](=O)[O-]` [Compound 10, 6-(thiomethyl)-5-nitro-4-(β-D-ribo-furanosylamino)pyrimidine], the Activity entry was “*”. Still for that read-out and setting: as for `Cc1cc(N[C@@H]2O[C@H](CO)[C@@H](O)[C@H]2O)ncc1[N+](=O)[O-]` [Compound 11, 5-nitro-4-methyl-2-(β-D-ribofuranosyl-amino)pyridine], the entry is “*”; as for `CC1(C)O[C@@H]2[C@H](O1)[C@@H](CO)O[C@H]2Nc1ncnc(N)c1[N+](=O)[O-]` [Compound 12, 6-amino-5-nitro-4-(2,3-O-isopropylidene-β-D-ribofuranosylamino)pyrimidine], 0; as for `O=[N+]([O-])c1c(NCCO)ncnc1N[C@@H]1O[C@H](CO)[C@@H](O)[C@H]1O` [Compound 13, 6-(2-hydroxy-ethylamino)-5-nitro-4-(β-D-ribo-furanosylamino)pyrimidine], 0. Still for that read-out and setting: then `CCNc1ncnc(N[C@@H]2O[C@H](CO)[C@@H](O)[C@H]2O)c1[N+](=O)[O-]` [Compound 14, 6-(ethylamino)-5-nitro-4-(β-D-ribo-furanosylamino)pyrimidine], with 0.

The compound `COc1ccc(CNc2ncnc(N[C@@H]3O[C@H](CO)[C@@H](O)[C@H]3O)c2C#N)cc1` [Compound 15, 6-(4-methoxy-benzylamino)-5-cyano-4-(β-D-ribo-furanosylamino)pyrimidine] displayed an Activity of 0. On to `N#Cc1cccnc1N[C@@H]1O[C@H](CO)[C@@H](O)[C@H]1O` [Compound 16, 3-cyano-2-(β-D-ribofuranosyl-amino)pyridine], for which the Activity entry is recorded as “*”. Take `O=[N+]([O-])c1c(O)ncnc1N[C@@H]1O[C@H](CO)[C@@H](O)[C@H]1O` [Compound 17, 6-hydroxy-5-nitro-4-(β-D-ribofuranosylamino)pyrimidine]: the Activity result was “*”. Take `Nc1ncnc(N[C@@H]2O[C@H](CO)[C@H](O)[C@H]2O)c1[N+](=O)[O-]` [Compound 18, 6-amino-5-nitro-4-(β-D-xylofuranosylamino)-pyrimidine]: the Activity came to 0. Turning to `Nc1ncnc(N[C@H]2O[C@@H](CO)[C@H](O)[C@@H]2O)c1[N+](=O)[O-]` [Compound 19, 6-amino-5-nitro-4-(β-L-ribofuranosylamino)-pyrimidine], the Activity entry is on record as “**”. As to `Nc1ncnc(N[C@@H]2O[C@H](CF)[C@@H](O)[C@H]2O)c1[N+](=O)[O-]` [Compound 20, 6-amino-5-nitro-4-(5-deoxy-5-fluoro-β-D-ribofuranosylamino)-pyrimidine], the Activity result is “*”.

For the compound `[N-]=[N+]=NC[C@H]1O[C@@H](Nc2ncnc(N)c2[N+](=O)[O-])[C@H](O)[C@@H]1O` [Compound 21, 6-amino-5-nitro-4-(5-deoxy-5-azido-β-D-ribofuranosylamino)-pyrimidine], the Activity entry was “*”. Same read-out and setting: then `CC(=O)OC[C@H]1O[C@@H](Nc2ncnc(N)c2[N+](=O)[O-])[C@H](O)[C@@H]1O` [Compound 23, 6-Amino-5-nitro-4-[(5-O-acetyl-β-D-ribofuranosyl)amino]pyrimidine], with “***”; and `COC(=O)c1c(N)ncnc1N[C@@H]1O[C@H](CO)[C@@H](O)[C@H]1O` [Compound 25, Methyl 6-amino-4-(β-D-ribofuranosylamino)pyrimidine-5-carboxylate], with “*”; and `COC(=O)c1c(Cl)ncnc1N[C@@H]1O[C@H](CO)[C@@H](O)[C@H]1O` [Compound 26, Methyl 6-chloro-4-(β-D-ribofuranosylamino)pyrimidine-5-carboxylate], with 0. In the case of `COC(=O)c1c(N)ncnc1N[C@H]1O[C@H](CO)[C@@H](O)[C@H]1O` [Compound 27, Methyl 6-amino-4-(α-D-ribofuranosylamino)pyrimidine-5-carboxylate], the Activity entry is reported as “*”. The same measure, in the same setting: as for `COC(=O)c1c(Cl)ncnc1N[C@H]1O[C@H](CO)[C@@H](O)[C@H]1O` [Compound 28, Methyl 6-chloro-4-(α-D-ribofuranosylamino)pyrimidine-5-carboxylate], the figure is 0.

A further series relates to p53 tumor suppressor gene nonsense mutation in NCI-H774 cells. Kind of series: anti-p53 antibody western blot, suppression of p53 nonsense mutation in NCI-H774 cells. As to conditions: NCI-H774, mutation TGA-342. Type of series: cell-based. The method, then: [Worded in the source for another cell line; this cell line is reported under the same test.] as §1
For `CN[C@@H]1[C@@H](O)[C@@H](O[C@@H]2[C@@H](O)[C@H](O[C@H]3O[C@H]([C@@H](C)O)[C@@H](O)[C@H](O)[C@H]3N)[C@@H](N)C[C@H]2N)OC[C@]1(C)O` [Compound G418], the “full length p53” value is on record as “+”.

Tested on in the next series: not given
Assay: not given
Conditions: not given
By melting point is commonly meant the temperature of the solid-liquid transition. With `COC(=O)c1c(Cl)ncnc1N[C@@H]1O[C@H](CO)[C@@H](O)[C@H]1O` [Compound 26, Methyl 6-chloro-4-(β-D-ribofuranosylamino)pyrimidine-5-carboxylate], the melting point was in the range of 161 to 162 °C.

In another series the test system is p53 tumor suppressor gene nonsense mutation in CALU-6 cells. Kind of series: anti-p53 antibody western blot, suppression of p53 nonsense mutation in CALU-6 cells. In kind it is cell-based. Particulars: CALU-6, mutation TGA-196. The procedure: as §1
(§2) The above experiment was repeated using both CALU-6 and CAOV-3 cells incubated with either clitocine (500 nM), G418 (330 μM) or no treatment.
On to `CN[C@@H]1[C@@H](O)[C@@H](O[C@@H]2[C@@H](O)[C@H](O[C@H]3O[C@H]([C@@H](C)O)[C@@H](O)[C@H](O)[C@H]3N)[C@@H](N)C[C@H]2N)OC[C@]1(C)O` [Compound G418], for which the “full length p53” value was “+”.

Another series relates to p53 tumor suppressor gene nonsense mutation in CAOV-3 cells. The experiment in a line: anti-p53 antibody western blot, suppression of p53 nonsense mutation in CAOV-3 cells. Type of series: cell-based. Particulars: CAOV-3, mutation TAA-136. The procedure:
as §1, §2
Regarding `CN[C@@H]1[C@@H](O)[C@@H](O[C@@H]2[C@@H](O)[C@H](O[C@H]3O[C@H]([C@@H](C)O)[C@@H](O)[C@H](O)[C@H]3N)[C@@H](N)C[C@H]2N)OC[C@]1(C)O` [Compound G418], the “full length p53” value is “+”.

The record behind these values is patent US7291603B2, “Nucleoside compounds and their use for treating cancer and diseases associated with somatic mutations” (PTC Therapeutics, Inc., priority 2002, dated 2007).
